From paper PMC9388697 (Biometals : an international journal on the role of metal …, 2022)

Biological target: Mar2 (Thermoanaerobacterium thermosaccharolyticum, UniProt D9TSN9, K173F/K351T)
Assay: lactate racemase activity, L-lactate determined with Megazyme kit
Assay type: biochemical
Details: 200 mM D-lactate; in vitro synthesized NPN; 35 °C; 30 min

`C[C@@H](O)C(=O)O` [D-lactate] was tested, and the “% of TtLarA activity” value was “a small but substantial lactate racemase (Lar) activity was detected for the purified enzymes”.
